Experimental findings from patent publication US12435109B2, “Compositions and methods for dissolving protein aggregates” (REJUKON BIOPHARM INC., priority 2020, dated 2025) are described below.

“Also recorded” adds a separate entry of the source.

The test system of test [1] is SOD1(G93A)-GFP protein aggregates in motor neurons. Kind of test: SOD1(G93A) protein aggregates in primary cultured motor neurons, live imaging. It is filed as cell-based, rat. As to conditions: 20 μM polypeptide. The protocol:
Real-time imaging technology using fluorescence microscope was used to observe the cell culture. The left panel is the polypeptide RJK001; the right panel is the control polypeptide RJK005. […] The right image in each panel is the microscopic image at 24 hours after adding the polypeptides.
(§1) An ALS rat motor neuron model that can be used to overexpress FUS-GFP protein and SOD1 (G93A) protein was generated using the following steps.
After the E13.5 rat is anesthetized, open the abdominal cavity and take out the uterus to a 10 cm dish. Add HBSS, use scissors and tweezers to remove the embryos to a new 10 cm dish. Separate the head and trunk of the embryo and move to anatomical spinal cord under a stereoscope. With the torso facing up, fix the hind limbs with a microscopic forceps. After finding the translucent spine, use another microscopic forceps to lift the skin forward and upward, and then open the connection on the side of the spine. Pick up the spine from the tail. Fix the head of the spine with the back side facing up and pick up the membrane. Turn the abdomen up, peel off the membrane, most of the DRG was removed. […]
A rat motor neuron model of ALS pathogenic SOD1 (G93A) protein aggregates was prepared according to Example 4. […] The dissolution effect of the polypeptides on proteins aggregates in motor neurons was recorded with live images using laser confocal fluorescence microscope. […]

In test [2] the test system is TIA1 protein aggregates in SH-SY5Y cells. Kind of test: TIA1 protein aggregates in heat-shocked SH-SY5Y cell model. Type of test: cell-based. To be noted: heat shock 42° C. 1 hour, 1 μg polypeptide-plasmid.
In test [3] the test system is TDP-43 protein aggregates in SH-SY5Y cells. The experiment in a line: TDP-43 protein aggregates in heat-shocked SH-SY5Y cell model overexpressing TDP-43-mCherry. It is filed as cell-based. As to conditions: SH-SY5Y overexpressing TDP-43-mCherry, heat shock 42° C. 1 hour, 1 μg polypeptide-plasmid. The protocol:
Polypeptides RJK001˜RJK004 and control polypeptides RJK005˜RJK007 were transfected into the SH-SY5Y cell model overexpressing TDP-43-mCherry after heat stimulation. The staining of G3BP1 represents the stress granule.
(§2) An SH-SY5Y cell model that overexpresses FUS-GFP protein or TDP-43-mCherry protein was generated using the following steps:
SH-SY5Y cells were cultured in DMEM/F12 medium containing 10% fetal bovine serum in a 37° C., 5% carbon dioxide incubator. After the cell confluence reaches 80%, the culture medium was removed using a vacuum pump or pipette. The cells were washed once with PBS. Add trypsin-EDTA (0.05%) to the culture dish and incubate it in a 37° C. cell incubator for 1 min. Add twice the volume of culture medium to stop the digestion, and gently blow the cells to suspend the cells into a uniform cell suspension. Add the cell suspension to a 15 mL centrifuge tube and centrifuge at 1200 rpm for 3 minutes. Discard the supernatant and resuspend the cells in fresh complete medium. […]
The SH-SY5Y cell model (initially cultured at 37° C.) transfected with the TDP-43 plasmid prepared according to Example 2 was placed in a 42° C. incubator for 1 hour for heat shock treatment to cause the TDP43 protein to separate and aggregate. […] Laser confocal fluorescence microscopy was used to observe the accumulation of TDP-43 and cell-endogenous G3BP1 in SH-SY5Y cells.

Test [4] relates to FUS-GFP protein aggregates in motor neurons. The experiment in a line: FUS-GFP protein aggregates in primary cultured motor neurons, live imaging. It is filed as cell-based, rat. To be noted: 20 μM polypeptide. The protocol: Real-time imaging technology using fluorescence microscope was used to observe the cell culture. […] The left 2-3 images are the microscopic images when the polypeptides were just added (0 min); the middle images are the microscopic images at different time points (30 minutes, 60 minutes, 90 minutes) after the polypeptides were added, and the right image is the microscopic image at 120 minutes after adding the polypeptides.
as §1
After the E13.5 rat is anesthetized, open the abdominal cavity and take out the uterus to a 10 cm dish. Add HBSS, use scissors and tweezers to remove the embryos to a new 10 cm dish. Separate the head and trunk of the embryo and move to anatomical spinal cord under a stereoscope. With the torso facing up, fix the hind limbs with a microscopic forceps. After finding the translucent spine, use another microscopic forceps to lift the skin forward and upward, and then open the connection on the side of the spine. Pick up the spine from the tail. Fix the head of the spine with the back side facing up and pick up the membrane. Turn the abdomen up, peel off the membrane, most of the DRG was removed. Remove the DRG attached to the spinal cord and move to a new 6 cm dish. Use micro tweezers to move the spinal cord to a 5 ml centrifuge tube, use tweezers to crush it to a size of 1 mm, add 1× Trypsin (diluted by HBSS), and place in a 37° C. incubator for 25-30 minutes. Use a 1 ml pipette tip to suck the tissue mass into the preheated 3 ml MN Medium and blow away the tissue mass. Pass the 40 um filer, transfer the cells to a 5 ml centrifuge tube, centrifuge at 400 g, 5 min to remove the supernatant. Resuspend the cells in 3 mlMN medium, take 10 ul and count. […]
A rat motor neuron model of ALS pathogenic FUS protein aggregates was prepared according to Example 4. […] The dissolution effect of the polypeptides on proteins aggregates in motor neurons was recorded with live images using laser confocal fluorescence microscope. […]

The test system of test [5] is FUS protein aggregates in SH-SY5Y cells. Kind of test: FUS protein aggregates in heat-shocked SH-SY5Y cell model overexpressing FUS. It is filed as cell-based. As to conditions: heat shock 42° C. 1 hour, 1 μg polypeptide-plasmid.
Text: Polypeptides RJK001˜RJK004 and control polypeptides RJK005˜RJK007 were transfected into the SH-SY5Y cell model overexpressing FUS-mCherry after heat stimulation. The staining of G3BP1 represents the stress granule.
Polypeptides RJG001˜RJG003 and control polypeptide RJK005 were transfected into the SH-SY5Y cell model overexpressing FUS-mCherry after heat stimulation. The staining of G3BP1 represents the stress granule.
as §2
SH-SY5Y cells were cultured in DMEM/F12 medium containing 10% fetal bovine serum in a 37° C., 5% carbon dioxide incubator. […]
(§3) The SH-SY5Y cell model (initially cultured at 37° C.) transfected with the FUS plasmid according to Example 2 was placed in a 42° C. incubator for 1 hour for heat shock treatment to cause FUS protein aggregation. […] Laser confocal fluorescence microscope was used to observe the accumulation of overexpressed FUS in SH-SY5Y cells.
as §3

For “TEPQEESEEEVEEPEERQQTPEVVPDDSGTFYDQTVSNDLE [RJK001, polypeptide capable of dissolving protein aggregates]”, the “aggregation of SOD1 (G93A) protein in motor neurons at 24 hours after adding polypeptide” value in test [1] is “dissolved significantly”. The “dissolving effect on SOD1 (G93A) protein aggregates in motor neurons” value in test [1] (motor neurons, day 10 in vitro, 24 hours) was “significant dissolving effect; also recorded: enhanced the dissolution”. In addition, the “dissolution of TIA1 protein aggregates / number of phase-separated droplets of TIA1 protein in SH-SY5Y cells versus control” value in test [2] is recorded as “significantly less; also recorded: significant dissolving effect”. Besides, in test [3], the “dissolution of TDP-43 protein aggregates / number of phase-separated droplets of TDP-43 protein in SH-SY5Y cells versus control” value is “significantly less; also recorded: significant dissolving effect”. In addition, the “aggregation of ALS pathogenic FUS protein in motor neurons at 90 minutes after adding polypeptide” value in test [4] (90 minutes) is reported as “began to dissolve significantly”. Also, in test [4] (120 minutes), the “aggregation of ALS pathogenic FUS protein in motor neurons after 120 minutes” value is listed as “essentially dissolved”. Moreover, the “dissolving effect on FUS protein aggregates in motor neurons” value in test [4] (motor neurons, day 10 in vitro, up to 120 minutes) is reported as “significant dissolving effect; also recorded: enhanced the dissolution”. Further, the “dissolution of FUS protein aggregates / number of phase-separated droplets of FUS protein in SH-SY5Y cells versus control” value in test [5] was “significantly less; also recorded: significant dissolving effect”.
